The values below come from ChEMBL document CHEMBL1136085, “Structure-activity study of novel tricyclic benzazepine arginine vasopressin antagonists” (Bioorg Med Chem Lett, 2003).

Experiment [1] relates to Rattus norvegicus. Description: Aquaretic effect was measured by the amount of urine collected after 4 hr at a dose of 30 mg/kg ip in 6 Dawley rats. The class given is functional. The note with it: route intraperitoneal.
The target in experiment [2] is T1, Vasopressin V1a receptor (Rattus norvegicus, UniProt P30560). Description: Inhibition of [3H]AVP binding to Dawley rat hepatic vasopressin V1a receptor.
Experiment [3] has as its target Vasopressin V2 receptor (Rattus norvegicus, UniProt Q00788). Description: Inhibition of [3H]AVP binding to Dawley rat kidney medullary vasopressin V2 receptor.
Experiment [4] concerns Rattus norvegicus. Description: Aquaretic effect was measured by the amount of urine collected after 4 hr at a dose of 10 mg/kg ip in 2 Dawley rats. The following applies: route intraperitoneal. The experiment is classed as functional.
Experiment [5] deals with Vasopressin V1a receptor (Rattus norvegicus) (UniProt P30560). Description: Compound was tested for the inhibition of [3H]AVP binding to Dawley rat hepatic Vasopressin V1a receptor. The following applies: concentration not given here.
The target in experiment [6] is T1, Vasopressin V1a receptor. Description: Compound was tested for the inhibition of [3H]AVP binding to Dawley […].
For experiment [7], the target named is Vasopressin V2 receptor (Rattus norvegicus) (UniProt Q00788). Description: Compound was tested for the inhibition of [3H]AVP binding to Dawley rat kidney medullary Vasopressin V2 receptor. The note with it: concentration not given here.
Chain of Vasopressin V2 receptor (Rattus norvegicus) (Q00788 whole entry): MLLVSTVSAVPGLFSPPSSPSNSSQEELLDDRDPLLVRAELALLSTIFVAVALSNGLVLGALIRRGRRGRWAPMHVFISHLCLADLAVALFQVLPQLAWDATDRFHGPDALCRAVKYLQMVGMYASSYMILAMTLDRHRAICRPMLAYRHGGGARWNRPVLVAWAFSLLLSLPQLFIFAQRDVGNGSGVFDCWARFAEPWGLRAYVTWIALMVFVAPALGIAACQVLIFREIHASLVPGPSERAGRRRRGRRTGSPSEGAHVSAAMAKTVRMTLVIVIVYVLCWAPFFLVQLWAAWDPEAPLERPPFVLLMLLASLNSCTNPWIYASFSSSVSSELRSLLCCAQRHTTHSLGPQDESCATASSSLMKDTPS

Chain of Vasopressin V2 receptor (Q00788 whole entry): as above
T1 sequence (P30560 whole entry): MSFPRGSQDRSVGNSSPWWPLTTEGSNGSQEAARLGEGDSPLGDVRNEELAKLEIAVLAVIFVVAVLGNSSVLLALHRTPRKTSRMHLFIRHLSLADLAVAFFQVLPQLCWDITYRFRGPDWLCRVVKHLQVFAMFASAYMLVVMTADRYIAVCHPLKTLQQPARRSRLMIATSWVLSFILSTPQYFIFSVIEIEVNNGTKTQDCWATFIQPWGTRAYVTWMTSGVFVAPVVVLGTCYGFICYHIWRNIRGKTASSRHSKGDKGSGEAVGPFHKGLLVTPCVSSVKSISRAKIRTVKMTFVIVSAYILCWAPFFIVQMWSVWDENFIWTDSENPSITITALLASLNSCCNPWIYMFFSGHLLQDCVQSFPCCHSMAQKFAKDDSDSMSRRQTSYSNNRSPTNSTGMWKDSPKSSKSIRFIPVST
Chain of Vasopressin V1a receptor (Rattus norvegicus) (P30560 whole entry, looked up): as the sequence (P30560 whole entry) above

The compound `Cc1ccccc1C(=O)Nc1ccc(C(=O)N2Cc3ccccc3Nc3ccccc32)cc1` registered a Urine volume in experiment [1] of 7.4 ml 4hr-1. Take `Cc1cccc(C(=O)Nc2ccc(C(=O)N3Cc4cccn4Cc4ccccc43)cc2)c1C`: the IC50 (as a rule, the concentration that inhibits the measured activity by half) in experiment [2] was 240 nM; in experiment [3] it was 13 nM. Consider `O=C(Nc1ccc(C(=O)N2Cc3cccn3Cc3ccccc32)cc1)c1ccccc1O`, for which the IC50 in experiment [3] was determined as 540 nM. As to `Cc1ccccc1C(=O)Nc1ccc(C(=O)N2c3ccccc3CCc3ccccc32)cc1`, the IC50 was determined as 2500 nM in experiment [2] and 860 nM in experiment [3].

Compound `Cc1ccc(F)cc1C(=O)Nc1ccc(C(=O)N2Cc3cccn3Cc3ccccc32)c(Cl)c1` [LIXIVAPTAN] returned a Urine volume in experiment [4] of 22 ml 4hr-1.

As for `Cc1ccccc1C(=O)Nc1ccc(C(=O)N2Cc3ccccc3CCc3ccccc32)cc1`, the values for the inhibition in experiment [5] and in experiment [7] were 60% and 80%, respectively. For the same compound, the IC50 in experiment [6] and in experiment [3] was 50000 nM throughout. In turn, `Cc1ccc(F)cc1C(=O)Nc1ccc(C(=O)N2Cc3cccn3Cc3ccccc32)cc1` showed a Urine volume in experiment [4] of 21.8 ml 4hr-1. For the same compound, in experiment [3], the IC50 amounted to 1.5 nM.

The compound `O=C(Nc1ccc(C(=O)N2Cc3cccn3Cc3ccccc32)cc1)c1ccccc1Cl` returned a Urine volume in experiment [4] of 12.4 ml 4hr-1. Take `O=C(Nc1ccc(C(=O)N2Cc3cccn3Cc3ccccc32)cc1)c1ccccc1Br`: the IC50 came out at 2 nM in experiment [2] and 7 nM in experiment [3]. For `O=C(Nc1ccc(C(=O)N2Cc3cccn3Cc3ccccc32)cc1)c1ccc(F)cc1Cl`, in that order: 7 nM and 4 nM.

With `Cc1ccccc1C(=O)Nc1ccc(C(=O)N2Cc3ccccc3Oc3ccccc32)cc1`, the results for the IC50 in experiment [2] and in experiment [3] were 1500 nM and 1700 nM, respectively.
